Reference: publication PMC8708580, “Structure Revision and Protein Tyrosine Phosphatase Inhibitory Activity of Drazepinone” (Marine Drugs, 2021)
Like-named read-outs stand apart in the source and are kept apart here.

Assays:
[1] = molecular target: T1, PTP1B (Homo sapiens, UniProt P18031); assay: PTP inhibitory activity assay, PTP1B; assay type: biochemical; conditions: in vitro; Na3VO4 positive control
T1 sequence (P18031 1-435): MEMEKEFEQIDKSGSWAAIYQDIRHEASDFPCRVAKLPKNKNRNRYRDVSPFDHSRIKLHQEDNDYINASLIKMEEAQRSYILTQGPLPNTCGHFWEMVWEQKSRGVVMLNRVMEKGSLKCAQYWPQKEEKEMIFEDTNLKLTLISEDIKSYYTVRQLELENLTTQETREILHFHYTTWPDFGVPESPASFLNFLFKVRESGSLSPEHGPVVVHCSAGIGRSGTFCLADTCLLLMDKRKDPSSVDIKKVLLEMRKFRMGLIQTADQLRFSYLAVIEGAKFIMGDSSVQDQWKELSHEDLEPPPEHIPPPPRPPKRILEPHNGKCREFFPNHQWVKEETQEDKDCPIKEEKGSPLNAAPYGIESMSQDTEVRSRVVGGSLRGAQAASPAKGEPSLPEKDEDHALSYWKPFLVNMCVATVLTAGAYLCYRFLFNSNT
Method: Thus, the isolated compounds (+)-1 and (−)-1 were tested for their PTP inhibitory activity against PTP1B, TCPTP, SHP1, and CD45.
PTP inhibitory activity of (+)-1 and (−)-1 against PTP1B, TCPTP, SHP1, and CD45 was tested in the same way as that described in the literature.

[2] = molecular target: T2, TCPTP (Homo sapiens, UniProt P17706); assay: PTP inhibitory activity assay, TCPTP; assay type: biochemical; conditions: in vitro; Na3VO4 positive control
T2 sequence (P17706 1-415): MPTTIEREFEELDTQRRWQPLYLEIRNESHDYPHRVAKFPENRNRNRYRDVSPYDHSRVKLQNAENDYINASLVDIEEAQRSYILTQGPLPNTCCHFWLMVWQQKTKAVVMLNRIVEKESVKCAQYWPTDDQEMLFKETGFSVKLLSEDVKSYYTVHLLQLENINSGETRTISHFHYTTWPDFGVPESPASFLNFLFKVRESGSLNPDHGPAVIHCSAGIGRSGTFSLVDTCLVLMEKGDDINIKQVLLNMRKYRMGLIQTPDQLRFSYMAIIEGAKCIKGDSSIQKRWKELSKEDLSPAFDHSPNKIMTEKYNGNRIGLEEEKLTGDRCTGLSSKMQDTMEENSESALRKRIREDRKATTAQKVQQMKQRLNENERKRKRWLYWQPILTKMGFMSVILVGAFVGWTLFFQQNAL
Method: (§1) Protein tyrosine phosphatases (PTPs), including PTP1B, T-cell PTP (TCPTP), Src homology-2 domain-containing PTP-1 (SHP1), and CD45 PTP (CD45), a family of enzymes that hydrolytically remove phosphate groups from proteins, have attracted much attention recently for drug discovery. […] Thus, the isolated compounds (+)-1 and (−)-1 were tested for their PTP inhibitory activity against PTP1B, TCPTP, SHP1, and CD45.
(§2) PTP inhibitory activity of (+)-1 and (−)-1 against PTP1B, TCPTP, SHP1, and CD45 was tested in the same way as that described in the literature. Na3VO4 was used as the positive control.

[3] = molecular target: T3, CD45 (Homo sapiens, UniProt P08575); assay: PTP inhibitory activity assay, CD45; assay type: biochemical
T3 sequence (P08575 26-1306): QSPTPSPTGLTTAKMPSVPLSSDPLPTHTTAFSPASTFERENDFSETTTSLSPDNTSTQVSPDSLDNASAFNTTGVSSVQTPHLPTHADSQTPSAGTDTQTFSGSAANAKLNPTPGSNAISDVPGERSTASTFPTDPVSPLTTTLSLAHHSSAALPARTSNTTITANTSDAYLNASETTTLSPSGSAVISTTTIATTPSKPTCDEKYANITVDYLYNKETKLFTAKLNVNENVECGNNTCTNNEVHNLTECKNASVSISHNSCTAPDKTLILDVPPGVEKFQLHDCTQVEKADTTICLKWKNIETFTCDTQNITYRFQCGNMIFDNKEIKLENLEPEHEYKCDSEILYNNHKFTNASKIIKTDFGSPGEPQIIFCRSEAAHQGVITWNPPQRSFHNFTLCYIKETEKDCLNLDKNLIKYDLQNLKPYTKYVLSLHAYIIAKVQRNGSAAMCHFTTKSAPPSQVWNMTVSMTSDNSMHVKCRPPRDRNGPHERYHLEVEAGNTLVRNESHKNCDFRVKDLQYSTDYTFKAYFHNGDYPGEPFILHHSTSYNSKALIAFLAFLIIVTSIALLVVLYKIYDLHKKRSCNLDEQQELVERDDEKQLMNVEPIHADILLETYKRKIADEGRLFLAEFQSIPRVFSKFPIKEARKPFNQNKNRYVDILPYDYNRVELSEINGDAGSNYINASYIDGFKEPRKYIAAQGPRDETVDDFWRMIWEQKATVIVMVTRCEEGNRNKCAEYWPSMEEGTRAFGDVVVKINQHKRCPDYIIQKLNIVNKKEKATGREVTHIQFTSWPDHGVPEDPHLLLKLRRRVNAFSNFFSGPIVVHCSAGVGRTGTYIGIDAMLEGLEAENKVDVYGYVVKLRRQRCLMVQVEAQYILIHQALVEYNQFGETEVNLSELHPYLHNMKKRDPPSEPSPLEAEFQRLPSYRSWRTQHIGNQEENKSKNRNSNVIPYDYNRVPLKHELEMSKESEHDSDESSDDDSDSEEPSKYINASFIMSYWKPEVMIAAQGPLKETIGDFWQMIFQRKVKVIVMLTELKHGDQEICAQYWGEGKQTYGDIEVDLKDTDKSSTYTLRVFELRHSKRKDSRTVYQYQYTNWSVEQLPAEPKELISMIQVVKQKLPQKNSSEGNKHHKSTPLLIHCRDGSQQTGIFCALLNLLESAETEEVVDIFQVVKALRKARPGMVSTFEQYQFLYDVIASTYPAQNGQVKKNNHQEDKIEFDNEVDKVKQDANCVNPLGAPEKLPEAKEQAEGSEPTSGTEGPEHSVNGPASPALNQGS
Method: as §1, §2

[4] = parameters: method as in PMID 15771896; conditions: at a concentration of 2.0 μg/μL; cited from earlier work
[5] = parameters: method as in PMID 15771896; conditions: at a concentration of 2.0 μg/μL; cited from earlier work; remark: listed apart in the source
[6] = in vitro, Na3VO4 positive control

CC1=CC2(C)Oc3c(-c4ccccc4)c[nH]c(=O)c3C2C1C (single isomer, unassigned; (+)) [(+)-1]
IC50 [1]: > 85.2 µM | IC50 PTP1B [1]: no activity | IC50 [2]: > 85.2 µM | IC50 TCPTP [2]: no activity | IC50 [3]: > 85.2 µM | IC50 CD45 [3, 6]: no activity

CC1=CC2(C)Oc3c(-c4ccccc4)c[nH]c(=O)c3C2C1C (single isomer, unassigned; (-)) [(−)-1]
IC50 [1]: 5.32 µM | IC50 [2]: 42.6 µM | IC50 [3, 6]: > 85.2 µM

[Na+].[Na+].[Na+].[O]=[V]([O-])([O-])[O-] [Na3VO4, reference compound]
IC50 TCPTP [2]: 3.13 µg/mL | IC50 CD45 [3, 6]: 6.25 µg/mL

CC1=CC(C)C2c3cc4ccccc4cc3OC2(C)NC1=O (stereo not shown) [drazepinone, Drazepinone]
zootoxic activity [4]: low zootoxic activity | herbicidal properties [5]: broad-spectrum herbicidal properties
